Assays:
[1] = test system: Influenza A USSR/90(H1 N1); assay: Anti-Influenza Activity (Hemadsorption Assay), Influenza A USSR/90; type: cell-based; conditions: for inhibition: Influenza A virus, read-out: % Inhibition of Hemadsorption Foci
Protocol: Upon infection of a monolayer of tissue culture cells by influenza virus, the cell surface is altered so that guinea pig erythrocytes can be adsorbed to the cell surface. The number of foci of adsorbed cells (hemadsorption foci forming units HAFFU) is a quantitative measure of infectivity. The method is as follows.
The monolayers were subcultured in the following manner: The medium was poured off, and the monolayer washed two times with approximately 50 ml per wash of calcium and magnesium free phosphate buffered saline (PBS), (GIBCO #419) at a pH of 7.2. One ml of trypsin-EDTA solution (GIBCO #530L) containing 0.5 g trypsin (1:250) and 2.0 g EDTA/liter of Modified Puck's Saline A was added at 37° C. to each flask and dispersed over the monolayer with gentle shaking. The flasks were then placed in an incubator at 37° C. for approximately 3-5 minutes depending on the time required to dislodge the cells. Occasional shaking was required. Ten ml of planting medium was added to each flask and the cells dispersed by aspirating and expelling the suspension from the pipette. The contents of a series of flasks were pooled and the cells in the suspension were diluted with planting medium to 7-8.5×10^4 cells/ml. The planting medium consisted of the following composition: Minimum Essential Medium Eagles (MEM) with Earle's salts and HEPES buffer (GIBCO #236) supplemented by adding the following substances as specified to 87 ml of MEM:
The following day the medium was removed and replaced with fresh planting medium. The monolayers were used for experimentation when they reached a condition in which they were almost confluent (approximately 3-4 days).
When the Linbro tray HeLa cell cultures were ready for experimentation (see cells), the medium was decanted and 1 ml of maintenance medium (MEM with FCS reduced to 3%) containing the compound being tested at a given concentration was added to 4 replicate cultures within a tray.
A series of different drug concentrations ranging from 2.3 to 150 μg/ml were used. Maintenance medium alone was used for control cultures. After the administration of drug and control medium, 0.1 ml of the diluted viral suspension was added to experimental groups and infected control cultures. Saline alone was added to non-infected control cultures. The Linbro trays were then incubated at 37° C. for 18 hours, after which media in all groups was aspirated. Each culture was washed once with PBS. The saline was aspirated and 0.5 ml of a 0.4% v/v guinea pig red blood cell suspension in PBS was added to each culture well. The cultures remained at room temperature for 30 minutes after which the medium was decanted and culture washed […] with PBS to remove all but the specifically bound red cells. After the third wash, maintenance medium was added to all cultures.
A Howard Micrometer eyepiece (C8385) was inserted within the ocular of a Nikon inverted phase contrast microscope. Each culture was scanned with a 4× low paper objective and direct counts of hemadsorbed red cells were counted using the eyepiece grid as a field marker. Partial or complete fields were counted per experimental group depending on the resulting number and density of hemadsorbed cells in the infected control cultures. Magnification of 60× or 150× were chosen to obtain the best conditions for enumerating the hemadsorbed cells. Field factors were calculated for counting hemadsorption at 60× and 150×. At 60× magnification, total field count was calculated using a multiplication factor of 55.5. At 150× magnification the multiplication factor was 273. The multiplication factors of 55.5 and 273 represent the total number of fields at 60× and 150× magnifications, respectively. The number of fields counted ranged from 3 to 5 per well with 3 to 4 wells per treatment group employed (see raw data tables in results section for number of fields examined). Means and standard errors were calculated and the data was evaluated using student's t-test analysis.

immune response = assay: Immunomodulation / immune response potentiation (summary); type: cell-based; conditions: for DIP.PAcBA potentiation of Immunpotentiation: DIP.PAcBA salt vs parent compound; for potentiation of the immune response: three test systems of Table 4
Excerpt: The following three assay procedures are used to evaluate the ability of the test substances to modulate the activity of several classes of cells in the immune system. In these systems it is possible to identify both immunopotentiating activity (evidence by an enhancement of the parameter examined) as well as immunosuppressant activity (evidenced by an inhibition of the parameter examined).
Table 4 above presents the results of an evaluation of a number of these subject compounds as potentiators of the immune response. Three different test systems were used. The first involves a measure of the ability of the test compound to enhance the ability of mouse lymphocytes to proliferate in response to a plant mitogen (Con A). The second involves measuring the ability of the test compounds to enhance human lymphocyte proliferation in response to a second plant mitogen (PHA). The third system measures the ability of these test substances to enhance macrophage proliferation in response to a natural lymphokine (MMF, Macrophage Mitogenic Factor).

spleen cells = assay: In vitro treatment of Con A stimulated spleen cells; type: cell-based, mice (Balb/C); conditions: compound 1 μg/ml; suboptimal Con A 5 μg/ml
Excerpt: The purpose of this study was to determine the effects of in vivo treatment of mice with the compounds NPT 15392 and 15410 on the subsequent activity of spleen cells isolated from these animals and evaluated in vitro for their proliferative response to the mitogen, Concanavalin A (Con A).
The following day, each group was sacrificed and the spleens removed and pooled. The spleens were minced and the cells washed in RPMI-1640 medium (Grand Island Biologicals) supplemental with 2 mm glutamine and antibiotics. The cell concentration of each preparation was determined by a Coulter counter and adjusted to 5×10^6 cells/ml with RPMI medium.
Microtiter assays were carried out in 0.2 ml incubations, containing 5×10^5 cells and Con A or Con A and compounds at the indicated concentrations. All assays were performed with 6 replicates and compared with a blank assay containing only cells. The assay plates were incubated at 37° in 5% CO2 for 4 days. During the final 18-20 hours of incubation, […] of ^3 HTdR (10 μCi/ml, 6 Ci /m mole) were added to each culture. The cultures were harvested with a multiple automatic sample harvester (MASH) unit and the incorporated ^3 HTdR determined with a Beckman LS 8000 liquid scintillation counter, as a measure of cell proliferation. The results are tabulated as the ratio of the activity in the Con A or Con A and compound treated cultures to the blank cultures. […]

[2] = test system: human peripheral blood lymphocytes; assay: Mitogen Induced (PHA) Human Lymphocyte Proliferation; type: cell-based

For `CCCCCCC(CO)n1cnc2c(=O)[nH]cnc21` (stereo not drawn) [NPT 15418], the “% Inhibition of Hemadsorption Foci” value ([1]; Conc. 10-100 μg/ml) was 46%, the “% Inhibition of Hemadsorption Foci” value ([1]; Conc. <10 μg/ml) was 16% and the “% Inhibition of Hemadsorption Foci” value ([1]; Conc. >100 μg/ml) was 52%. The “DIP.PAcBA potentiation of Immunpotentiation” value (immune response) was “Yes” and the “potentiation of the immune response” value (immune response) was “Significant potentiation”.
`CCCCCC[C@H]([C@H](C)O)n1cnc2c(=O)[nH]cnc21` (relative stereo) [NPT 15392, Erythro-9-(2-Hydroxy-3-Nonyl)Hypoxanthine] was tested, and the “% Inhibition of Hemadsorption Foci” value ([1]; Conc. <10 μg/ml, listed as 15392) was 86%, the inhibition ([1]; Conc. 10-100 μg/ml) was 100% and the “potentiation of the immune response” value (immune response) was “Significant potentiation”. The “augmentation of Con A stimulation” value (spleen cells) was “marked ability to augment the Con A stimulation”.
`CCCCCCC(CO)n1cnc2c(=O)[nH]cnc21` (stereo not drawn) [NPT 15417] was tested, and the inhibition ([1]; Conc. 10-100 μg/ml) was 58%, the “Maximum Percent Change, Mitogen Induced (PHA) Human Lymph. Prolif.” value (from here on “Maximum Percent Change, Mitogen Induced”) ([2]; 1.0-10) was 0% and the “Maximum Percent Change, Mitogen Induced” value ([2]; 10-100) was -50%. For the same molecule, the “Maximum Percent Change, Mitogen Induced” value ([2]; .01-1.0) was 0%.
`CCCCCC[C@H]([C@H](C)O)n1cnc2c(=O)[nH]cnc21` (relative stereo) [NPT 15410] was tested, and the “% Inhibition of Hemadsorption Foci” value ([1]; Conc. 10-100 μg/ml) was 96%, the “% Inhibition of Hemadsorption Foci” value ([1]; Conc. <10 μg/ml, listed as 15410) was 58% and the “% Inhibition of Hemadsorption Foci” value ([1]; Conc. >100 μg/ml) was 96%. The “Maximum Percent Change, Mitogen Induced” value ([2]; 1.0-10) was 60%, the “Maximum Percent Change, Mitogen Induced” value ([2]; .01-1.0) was 30-50% and the “DIP.PAcBA potentiation of Immunpotentiation” value (immune response) was “Yes”. The “potentiation of the immune response” value (immune response) was “Significant potentiation” and the “augmentation of Con A stimulation” value (spleen cells) was “marked ability to augment the Con A stimulation”.

— patent US4221909A, “P-Acetamidobenzoic acid salts of 9-(hydroxyalkyl) purines” (Sloan-Kettering Institute for Cancer Research, priority 1978, dated 1980)
